Source: US20200354327A1, “COMPOUND HAVING STAT3 INHIBITORY ACTIVITY AND USE THEREOF” (CYTUS H&B CO., LTD., priority 2017, published 2020)

Key:
MDA-MB-231 cells = experiment: Wound healing assay, MDA-MB-231; assay type: cell-based, human; conditions: MDA-MB-231, 24 hours
Procedure: Wound healing assay was performed as previously described (Jung J E, et al. FASEB J. 19, 1296-1298 (2005)). The respective cells were dispensed into a 12-well plate (U87-MG: 5×10^5 cells/ml; MDA-MB-231: 3×10^5 cells/ml) and cultured until the cells proliferated 90% or more. Cells scraped off from the plate with the tip of the pipette were washed two times with PBS. After 24 hours, the proliferation (invasion) of cells at the part from which the cells were had been removed was observed under a microscope, and images were taken.

STAT3 [1] = target: T1, STAT3 (Homo sapiens, UniProt P40763); experiment: Nuclear translocation of STAT3 (fluorescence microscope); assay type: cell-based; set-up: endogenous in cells; host or cells: L540, HDLM-2, U87-MG, MDA-MB-231, further human glioblastoma and breast cancer lines; conditions: compared with the control group
STAT3 [2] = target: T1, STAT3; experiment: STAT3 activity in various human cancer cell lines with excessively activated or IL-6-induced STAT3; assay type: cell-based; set-up: endogenous in cells; host or cells: L540, HDLM-2, U87-MG, MDA-MB-231, further human glioblastoma and breast cancer lines
Procedure: The human cancer cell lines used in the experiment were U87-MG (human malignant glioblastoma) and MDA-MB-231 (human malignant breast cancer) cell lines, and various kinds of human-derived blood and solid cancer cells including these human cancer cell lines were cultured as previously described (Jung J E, et al. FASEB J. 19, 1296-1298 (2005)). The human Hodgkin lymphoma cancer cell lines L540 and HLDM-2 used in the experiment were obtained from the German Collection of Microorganism and Cell Cultures (DSMZ, Germany) and cultured using RPMI 1640 medium containing 20% FBS in a 5% CO2 incubator at a temperature of 37° C.
Western blot analysis was performed (Jung J E, et al. FASEB J. 19, 1296-1298 (2005)). The cells were washed two times with PBS and suspended in the lysate (50 mM Tris-HCl, pH 7.4, 350 mM NaCl, 1% Triton X-100, 0.5% Nonidet P-40, 10% glycerol, 0.1% SDS, 1 mM EDTA, 1 mM EGTA, 1 mM Na3VO4, 1 mM PMSF, protease and phosphorylation inhibitor) and the cell membrane and nuclear membrane were crushed to lyse the cells. The insoluble protein fraction was removed by centrifugation, and the supernatant was mixed with SDS electrophoresis buffer and electrophoresis (SDS-PAGE) was performed to detect the protein with the desired antibody and to confirm the protein expression level.

T1 sequence (P40763 whole entry): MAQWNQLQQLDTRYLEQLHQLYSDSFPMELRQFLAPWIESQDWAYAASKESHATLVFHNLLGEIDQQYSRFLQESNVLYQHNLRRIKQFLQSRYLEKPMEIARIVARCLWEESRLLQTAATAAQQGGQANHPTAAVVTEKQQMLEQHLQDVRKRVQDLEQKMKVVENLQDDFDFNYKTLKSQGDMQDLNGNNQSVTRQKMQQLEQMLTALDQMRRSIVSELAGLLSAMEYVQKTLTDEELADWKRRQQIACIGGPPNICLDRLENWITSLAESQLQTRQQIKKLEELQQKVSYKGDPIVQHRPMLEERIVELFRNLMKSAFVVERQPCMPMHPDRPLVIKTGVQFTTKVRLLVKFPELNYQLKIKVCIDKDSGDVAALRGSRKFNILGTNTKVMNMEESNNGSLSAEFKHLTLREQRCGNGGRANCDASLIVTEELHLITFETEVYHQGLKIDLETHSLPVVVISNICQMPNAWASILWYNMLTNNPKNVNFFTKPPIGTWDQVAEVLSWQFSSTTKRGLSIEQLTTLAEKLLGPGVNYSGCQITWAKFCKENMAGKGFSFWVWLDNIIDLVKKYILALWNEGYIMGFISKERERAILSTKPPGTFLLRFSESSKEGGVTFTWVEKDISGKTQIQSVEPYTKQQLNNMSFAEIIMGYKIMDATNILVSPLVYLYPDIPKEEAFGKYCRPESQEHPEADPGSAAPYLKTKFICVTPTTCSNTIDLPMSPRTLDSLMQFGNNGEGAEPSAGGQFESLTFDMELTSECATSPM

Clc1ccc(OCc2noc(C(Cl)(Cl)Cl)n2)c(Cl)c1 [ODZ10117, 3-(2,4-dichloro-phenoxymethyl)-5-trichloromethyl-[1,2,4]oxadiazole]
cell migration (MDA-MB-231 cells): significantly inhibited the migration of these cells | nuclear translocation of STAT3 (STAT3 [1]): further inhibited nuclear translocation of STAT3 | activity of STAT3 induced by IL-6 (STAT3 [2]; IL-6 induced): efficiently inhibited the activity of STAT3 induced by IL-6 | activity of STAT3 (STAT3 [2]; various human cancer cell lines in which STAT3 was excessively activated): inhibited the activity of STAT3 in all kinds of cell lines used in the experiment | activity of STAT3 induced by IL-6, compared with known inhibitors (STAT3 [2]; versus NSC628869 and NSC74859): more efficiently inhibited the activity of STAT3 induced by IL-6 than NSC628869 and NSC74859
